Test [1] addresses A. mellifera α5 nAChR (Apis mellifera, UniProt A0A0H3V1C5). Description: Two-electrode voltage clamp of X. laevis oocytes expressing the A. mellifera α5 nAChR (wild-type). The class given is cell-based. The conditions noted are these: for normalised current response (Fig. 1c source data): single oocytes, normalised to maximal concentration of Fig. 1b. As for the experimental part:
(§1) Oocytes were mainly obtained either from Ecocyte (https://ecocyte-us.com/products/xenopus-oocyte-delivery-service/), which arrived ready for injection, or from the European Xenopus Resource Centre (https://xenopusresource.org/resources) as ovarian sections. In the latter case, oocytes were either prepared for injection by incubation in collagenase type I in OR2 (sodium chloride 82 mM, potassium chloride 2 mM, magnesium chloride 2 mM, HEPES 5 mM, pH 7.6) at 2 mg/ml for 45 min at room temperature and shaking at 150 RPM[19] or by manual defolliculation followed by incubation with 0.5 mg/ml collagenase type I in OR2 for 6 min at room temperature at 150 RPM. Oocyte nuclei were injected with 23 nl of A. mellifera α5 DNA cloned into the pCI vector[19] […] Mutant A. mellifera α5 subunits (in pCI) were injected at 100–500 ng/µl. […] Oocytes were clamped at −80 mV and responses were recorded on a flatbed chart recorder (Kipp and Zonen BD-11E, Delft, The Netherlands). The oocytes were continuously perfused with SOS at a flow rate of 10 ml/min. Oocytes were selected for experiments if responses were consistent for two or more applications of the normalising concentration of agonist. Test chemicals were applied at 3 min intervals. Agonist concentration response curves were created by measuring the response of the oocytes to different agonist concentrations in SOS, responses were normalised to the maximal response induced by the agonist. Amitraz (10 mM) was dissolved in DMSO and then at a working concentration in 1:1000 ratio in SOS. All other chemicals were either dissolved in distilled water to make frozen stocks (100 mM) or dissolved directly in SOS (10 mM) on the day of use. […] Oocytes were clamped at voltages ranging between −100 and +40 mV to determine the current voltage relationship.
Concentration-response data were fitted with the Hill equation: y=Imax/1/EC50/agonist^nH where y is the normalised current amplitude, Imax is the maximal response Imax/Iagonistmax , EC50 is the agonist concentration at half-maximal efficacy, [agonist] is the agonist concentration and nH is the Hill coefficient, to estimate the EC50 and Hill coefficient. Curve fitting was carried out using GraphPad software version 10 (GraphPad Software, La Jolla, CA, United States). […] The peak of the current responses was normalised to the agonist concentration that gave a maximal response. Error bars on graphs show standard error, ‘n’ indicates the number of experiments and ‘batch’ indicates the number of frogs these oocytes came from. Values are shown as mean ± 95% confidence limits.

Test [2] deals with α5 subunit of D. melanogaster. The note with it: homomeric receptor; cited from earlier work.
Test [3] has as its system X. laevis oocytes injected with water only. Description: Oocytes injected with water only. The class given is cell-based, Xenopus laevis. As for the experimental part: as §1
Setting [4] is: read-out: Maximum response relative to 5 mM ACh (%).
Where [5] appears, read: 1 mM, applied 3 min after 5 mM ACh.
Where [6] appears, read: Table 1 series, oocytes clamped at −80 mV, mean (95% confidence limits), read-out: EC50.
[7] abbreviates: Table 1 series, mean (95% confidence limits).

Where “and” joins values, the source holds several entries; their conditions need not be identical. Equal entries are not always repeated. Entries after “also recorded” stand apart in the source; their conditions may differ. Where two headings read alike, the source gives them in different places.

Chain of A. mellifera α5 nAChR (A0A0H3V1C5 entry or part of it): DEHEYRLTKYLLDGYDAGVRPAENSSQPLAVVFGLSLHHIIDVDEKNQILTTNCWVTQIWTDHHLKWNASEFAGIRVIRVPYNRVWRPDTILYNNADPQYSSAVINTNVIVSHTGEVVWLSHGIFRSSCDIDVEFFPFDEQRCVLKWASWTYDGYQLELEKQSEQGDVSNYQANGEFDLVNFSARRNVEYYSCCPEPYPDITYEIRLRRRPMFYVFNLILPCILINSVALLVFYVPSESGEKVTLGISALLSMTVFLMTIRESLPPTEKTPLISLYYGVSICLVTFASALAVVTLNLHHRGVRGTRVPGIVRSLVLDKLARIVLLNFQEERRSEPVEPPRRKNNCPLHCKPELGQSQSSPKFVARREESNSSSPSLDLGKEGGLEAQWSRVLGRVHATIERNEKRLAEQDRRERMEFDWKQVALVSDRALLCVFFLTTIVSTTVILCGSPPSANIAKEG

For `CC(=O)OCC[N+](C)(C)C` [Acetylcholine, acetylcholine], in test [1], the Hill coefficient is recorded as 2.304 (1.886–2.721), the “effect of absence of Na+ on agonist response” value was “eliminated the response”, the response on co-application result was “synergistic agonism” and the “response when applied alone” value is on record as “did not induce detectable responses”. For the same compound, the “shape of concentration response curve” value in test [1] is “biphasic concentration response curve”. In test [1] (setting [4]), the Emax amounted to 100%. Moreover, the half-maximal effective concentration (EC50) in test [2] was 8.8 µM.
Take `C[N+](C)(C)CCO` [Choline]: the Hill coefficient in test [1] was 2.043 (0.9065–3.180). In test [1] (EC50), this compound yielded an EC50 of 9070 µM. Further, in test [1] (setting [4]), the Emax was 100%.
With `NCCc1ccc(O)c(O)c1` [Dopamine, dopamine], in test [1], the Hill coefficient is listed as 2.220 (1.585–2.855), the “effect of absence of Na+ on agonist response” value was “eliminated the response”, the response on co-application entry is “synergistic agonism” and the “response when applied alone” value is given as “did not induce detectable responses”. Moreover, in test [3], the “response of water-injected oocytes” value was “no detectable response; also recorded: no responses were detected”.
Consider `NCCCC(=O)O` [GABA, γ-aminobutyric acid], for which, in test [1] (setting [5]), the agonist response entry is listed as “none of them were able to induce detectable responses; also recorded: no agonist actions”.
As to `NCCc1c[nH]cn1` [Histamine, histamine], in test [1], the Hill coefficient is reported as 2.500 (1.050–3.950) and the “type of agonist action relative to ACh” value is given as “partial agonist”. Besides, the EC50 in test [1] (setting [6]) was 3360 µM. Moreover, the Emax at 5000 µM in test [1] (setting [4]) turned out to be 45.3%.
In the case of `NCC(O)c1ccc(O)cc1` (stereo not shown) [Octopamine, octopamine], the Hill coefficient in test [1] (setting [7]) is recorded as 3.727 (2.998–4.455). Besides, in test [1] (setting [6]), the EC50 was 378 µM. In addition, the “normalised current response (Fig. 1c source data)” value (shortened to “normalised current response”) in test [1] (log[Agonist] M -2.22185, listed as OA) is 1.1 and 0.809; in test [1] (log[Agonist] M -2.52288, listed as OA), 0.943 and 1.14 and 0.971 and 0.986 and 0.935 and 1.1; in test [1] (log[Agonist] M -3), 1; in test [1] (log[Agonist] M -3.22185, listed as OA), 0.892 and 0.674 and 0.971 and 0.901 and 1.01 and 0.859; in test [1] (log[Agonist] M -3.30103, listed as OA), 0.827 and 0.623; in test [1] (log[Agonist] M -3.52288, listed as OA), 0.284 and 0.276 and 0.462 and 0.451 and 0.389 and 0.232. For the same compound, in test [1] (log[Agonist] M -5), the “normalised current response” value came to 0. The Emax at 1000 µM in test [1] (setting [4]) came out at 899%. Besides, in test [1] (wild-type), the “type of agonist action relative to ACh” value is recorded as “superagonists”. In addition, the “response of water-injected oocytes” value in test [3] was “no tyramine and octopamine responses”.
As for `NCCc1c[nH]c2ccc(O)cc12` [Serotonin], the Hill coefficient in test [1] (setting [7]) is 3.419 (2.503–4.335). In addition, the Emax in test [1] (setting [4]) stood at 238%.
On to `NCCc1ccc(O)cc1` [Tyramine, tyramine], for which, in test [1] (setting [7]), the Hill coefficient was 1.918 (1.355–2.481). Also, the EC50 in test [1] (setting [6]) came to 91.1 µM. The “normalised current response” value in test [1] (log[Agonist] M -3) is 1; in test [1] (log[Agonist] M -4, listed as TA), 0.538 and 0.456 and 0.597 and 0.416 and 0.62; in test [1] (log[Agonist] M -5), 0. In addition, the Emax at 1000 µM in test [1] (setting [4]) was 770%. In addition, the “type of agonist action relative to ACh” value in test [1] (wild-type) was “superagonists”. For the same compound, the “response of water-injected oocytes” value in test [3] is “no tyramine and octopamine responses”.
For `Cc1ccc(/N=C/N(C)/C=N/c2ccc(C)cc2C)c(C)c1` [amitraz], the antagonist action entry in test [1] (10 µM coapplied with 400 µM octopamine) is “no antagonist actions; also recorded: nor antagonistic actions”. For the same compound, the agonist action result in test [1] (10 µM, applied 3 min after 5 mM ACh) is “no agonist actions; also recorded: did not show any agonist actions”.
Take `N[C@@H](CCC(=O)O)C(=O)O` [glutamate]: in test [1] (setting [5]), the agonist response entry was “none of them were able to induce detectable responses; also recorded: no agonist actions”.
The same measure, in the same setting: the value for `NCC(=O)O` [glycine] was “none of them were able to induce detectable responses; also recorded: no agonist actions”.
For the compound `COc1cc(CCO)ccc1O` [homovanillyl alcohol], the agonist response result in test [1] (100 μM or 1 mM) is “did not elicit a response; also recorded: no agonist actions”.
As for α-bungarotoxin, in test [1], the “antagonist action on ACh response” value is on record as “antagonistic actions” and the “washing time after which response to 2 mM ACh was restored” value is 26 min.

As a reminder, the Hill coefficient is the slope factor of the fitted curve. What is called EC50 is the concentration giving half of the maximal effect.

(Values after publication PMC12700902 (Communications Biology, 2025).)
